# According to patent US20190029951A1, “EXTENDED RELEASE FORMULATIONS OF VELIPARIB FOR THE TREATMENT OF CANCER” (AbbVie Inc., priority 2016, published 2019):
# What was measured:
# Type in all cases: in vivo, human
# ovarian cancer = experiment: Best tumor response in patients with ovarian cancer; conditions: patients with OC, 8/44
# From the text: (§1) The term “efficacy” as used herein refers to an inhibitory effect on tumor growth, which can be manifested as slowing, retarding, arresting or even reversing (i.e., shrinking) growth of the tumor. In some embodiments, the effect on tumor growth is associated with suppression by a PARP inhibitory compound, for example Veliparib. In clinical sittings, efficacy can be measured by one skilled in the art and by a number of efficacy endpoints, for example, overall survival (OS), progression free survival (PPS), time to progression (TTP), time to treatment failure (TTF), event-free survival (EFS), time to next treatment (TINT), objective response rate (ORR), duration of response (DoR), and/or response rate, for example, partial response (PR) or complete response (CR). The term “partial response” or “PR” as used herein, means a partial response of the target lesion, indicated by at least a 30% decrease in the sum of diameters of target lesions, taking as reference the baseline sum diameters.
# (§2) Eligible patients had metastatic BRCA+ cancer, BRCA± high-grade serious ovarian/primary peritoneal/fallopian tube cancer (OC), (part 1/2), or BRCA+ breast cancer (BC), or OC (part 3).
# (§3) Best tumor responses were compared between patients from Part 1 who received IR-v as the primary treatment and patients in Part 2 and Part 3 of the study who received ER-v formulation C. […]
# breast cancer = experiment: Best tumor response in patients with breast cancer; conditions: patients with BC, 6/16
# From the text: as §1, §2, §3
# [1] = test system: tumor growth (sum of the longest diameter for all target lesions); experiment: Exposure-response tumor growth inhibition model (NONMEM nonlinear mixed-effects); conditions: final tumor growth inhibition model
# From the text: Fifty-four subjects (39 with ovarian, fallopian tube, or peritoneal cancers, 14 with breast cancer, and 1 with prostate cancer) were included in an exposure-response analysis using nonlinear mixed-effects modeling approach with NONMEM software (version 7.3.0) (Table 6).
# Veliparib pharmacokinetics (PK) was described with a one-compartment model with first-order elimination process (kel) (FIG. 4). For the IR formulation, absorption was modeled as a first-order process (ka) (Equations 1a and 1b). For the ER formulation, the absorption was modeled as a zero-order process (Dose/Duration) (Equations 2a and 2b).
# Subsequently, the relationship between veliparib PK exposure and longitudinal tumor growth inhibition was analyzed. The time course of tumor growth inhibition was modeled using an exponential tumor growth model represented by a single tumor compartment linked to veliparib central compartment with linear inhibitory effect of veliparib on tumor growth (see FIG. 4 and Equation 3). The possible measurement error at the baseline was accounted for by allowing individual deviations from the observed baseline as between-subject variability. Inter-individual variability was incorporated on the slope and estimated baseline using exponential function and the residual variability was characterized using additive error. […]
smiles,measurement,setting,value
"C[C@]1(c2nc3c(C(N)=O)cccc3[nH]2)CCCN1 [veliparib, 2-[(2R)-2-methylpyrrolidin-2-yl]-1H-benzimidazole-4-carboxamide]",Confirmed and unconfirmed responses,ovarian cancer,18%
same,Confirmed and unconfirmed responses,breast cancer,38%
same,"BRCA effect on Slope (i.e., ratio of Slope for BRCA-mut to Slope for BRCA-wt), Population Estimate",[1],1.72
